# From patent publication US20240059677A1, “SUBSTITUTED PYRIMIDINE DERIVATIVES AS NICOTINIC ACETYLCHOLINESTERASE RECEPTOR ALPHA 6 MODULATOR” (priority 2020, published 2024)
# Molecular target: T1, human nAChRα6-α3 chimera, in addition to β2 and β3^V273S subunits (Homo sapiens, UniProt P32297+Q15825)
# T1 construct: expressed in transfected cells
# Assay: fluorescence-based calcium assay: inhibition of nicotine stimulated nAChRα6 activity (FLIPR)
# Conditions: HEK cell line stably expressing the receptor; 10 min pre-incubation, nicotine EC80; 10-point curve, duplicate wells; read-out: IC50
# Method in brief: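 HEK cells stably expressing the human α6-α3 chimera with β2 and β3^V273S were loaded with calcium dye at 30° C. Compounds were pre-incubated for 10 min before nicotine at EC80, and the fluorescence change was read on a FLIPR. Ten-point half-log concentration-response, duplicate wells.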
# T1 sequence (Q05901 25-458 V273S): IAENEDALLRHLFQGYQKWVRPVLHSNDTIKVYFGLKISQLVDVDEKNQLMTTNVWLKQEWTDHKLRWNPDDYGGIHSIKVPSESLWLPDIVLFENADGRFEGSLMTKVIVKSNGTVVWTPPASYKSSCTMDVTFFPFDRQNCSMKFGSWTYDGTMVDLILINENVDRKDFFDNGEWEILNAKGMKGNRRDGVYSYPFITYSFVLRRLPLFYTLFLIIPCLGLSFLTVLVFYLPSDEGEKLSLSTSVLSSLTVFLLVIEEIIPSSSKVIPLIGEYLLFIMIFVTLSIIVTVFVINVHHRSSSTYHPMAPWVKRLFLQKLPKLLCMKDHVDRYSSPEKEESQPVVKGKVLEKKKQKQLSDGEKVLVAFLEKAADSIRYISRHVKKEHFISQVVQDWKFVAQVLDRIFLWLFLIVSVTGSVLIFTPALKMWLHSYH
# T1 sequence (P17787 26-502, stated change not applied, further chain): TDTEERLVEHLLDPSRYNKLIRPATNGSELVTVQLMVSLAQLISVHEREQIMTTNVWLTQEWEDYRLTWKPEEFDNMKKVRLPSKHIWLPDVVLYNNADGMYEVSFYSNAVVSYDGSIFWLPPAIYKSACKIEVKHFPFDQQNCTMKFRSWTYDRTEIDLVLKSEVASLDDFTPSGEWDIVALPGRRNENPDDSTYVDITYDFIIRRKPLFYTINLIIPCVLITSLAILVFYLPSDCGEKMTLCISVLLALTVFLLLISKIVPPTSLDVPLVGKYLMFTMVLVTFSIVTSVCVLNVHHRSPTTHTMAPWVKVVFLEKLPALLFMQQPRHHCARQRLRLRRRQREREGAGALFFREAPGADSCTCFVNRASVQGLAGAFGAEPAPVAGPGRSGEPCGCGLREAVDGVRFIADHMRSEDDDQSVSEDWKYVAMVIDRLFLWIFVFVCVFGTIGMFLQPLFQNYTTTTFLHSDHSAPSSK
# T1 sequence (Q15825+P32297 fused with the stated changes): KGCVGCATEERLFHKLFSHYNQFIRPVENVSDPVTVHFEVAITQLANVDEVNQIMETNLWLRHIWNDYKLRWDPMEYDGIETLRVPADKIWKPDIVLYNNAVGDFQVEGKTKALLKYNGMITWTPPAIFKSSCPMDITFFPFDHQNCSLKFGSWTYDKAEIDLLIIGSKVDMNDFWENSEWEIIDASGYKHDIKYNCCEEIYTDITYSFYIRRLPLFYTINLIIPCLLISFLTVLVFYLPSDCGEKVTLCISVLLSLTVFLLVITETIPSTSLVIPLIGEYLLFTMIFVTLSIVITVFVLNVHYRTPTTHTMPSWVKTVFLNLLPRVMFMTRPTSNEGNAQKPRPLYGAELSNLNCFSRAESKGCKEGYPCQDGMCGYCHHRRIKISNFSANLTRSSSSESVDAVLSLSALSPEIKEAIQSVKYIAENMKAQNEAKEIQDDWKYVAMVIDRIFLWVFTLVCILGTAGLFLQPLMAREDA
row,Compound,IC50
1,"Cc1nc(NC[C@H]2CC(F)(F)CN2C)ncc1-c1ccc(F)cc1F [Example 80, (R)—N-((4,4-difluoro-1-methylpyrrolidin-2-yl)methyl)-5-(2,4-difluorophenyl)-4-methyl-pyrimidin-2-amine]",1.47 µM
2,"COc1ccc(-c2cnc(NC3CCN(C(C)C)CC3)nc2C#N)c(F)c1 [Example 81, 5-(2-fluoro-4-methoxyphenyl)-2-((1-isopropylpiperidin-4-yl)amino) pyrimidine-4-carbonitrile]",0.098 µM
3,"Cc1nc(NCC2CCCN2)ncc1-c1ccc(F)cc1F (centres unmarked) [Example 82, 5-(2,4-difluorophenyl)-4-methyl-N-(pyrrolidin-2-ylmethyl)pyrimidin-2-amine]",0.018 µM
4,"CCN1CCCC1CNc1ncc(-c2ccc(F)cc2F)c(C)n1 (centres unmarked) [Example 85, 5-(2,4-difluorophenyl)-N-((1-ethylpyrrolidin-2-yl)methyl)-4-methyl-pyrimidin-2-amine]",0.051 µM
5,[2H]C([2H])([2H])N1CCCC1CNc1ncc(-c2ccc(F)cc2F)c(C)n1 (centres unmarked) [Example 87],0.045 µM
6,"Cc1nc(NC2CCN(C(C)C)CC2)ncc1-c1ccc(OC(F)(F)F)cc1F [Example 88, 5-(2-fluoro-4-(trifluoromethoxy)phenyl)-N-(1-isopropylpiperidin-4-yl)-4-methyl-pyrimidin-2-amine]",0.149 µM
7,"Cc1nc(NC2CCN(C)CC2)ncc1-c1ccc(OC(F)(F)F)cc1F [Example 89, 5-(2-fluoro-4-(trifluoromethoxy)phenyl)-4-methyl-N-(1-methylpiperidin-4-yl)pyrimidin-2-amine]",0.18 µM
8,"[2H]C([2H])([2H])N1CCC[C@H]1CNc1ncc(-c2ccc(F)cc2F)c(C)n1 [Example 90a, (S)-5-(2,4-difluorophenyl)-4-methyl-N-((1-(trideuteriomethyl)pyrrolidin-2-yl)methyl)pyrimidin-2-amine]",0.211 µM
9,"[2H]C([2H])([2H])N1CCC[C@@H]1CNc1ncc(-c2ccc(F)cc2F)c(C)n1 [Example 90b, (R)-5-(2,4-difluorophenyl)-4-methyl-N-((1-(trideuteriomethyl)pyrrolidin-2-yl)methyl)pyrimidin-2-amine]",0.186 µM
10,"Cc1nc(NC[C@H]2CCCN2C)ncc1-c1ccc(C(F)(F)F)cc1F [Example 91a, (R)-5-(2-fluoro-4-(trifluoromethyl)phenyl)-4-methyl-N-((1-methylpyrrolidin-2-yl)methyl)pyrimidin-2-amine]",0.008 µM
11,"Cc1nc(NC[C@@H]2CCCN2C)ncc1-c1ccc(C(F)(F)F)cc1F [Example 91b, (S)-5-(2-fluoro-4-(trifluoromethyl)phenyl)-4-methyl-N-((1-methylpyrrolidin-2-yl)methyl)pyrimidin-2-amine]",0.028 µM
12,"Cc1nc(NC[C@H]2CCCN2C)ncc1-c1ccc(F)cc1C(F)(F)F [Example 92a, (R)-5-(4-fluoro-2-(trifluoromethyl)phenyl)-4-methyl-N-((1-methylpyrrolidin-2-yl)methyl)pyrimidin-2-amine]",0.033 µM
13,"Cc1nc(NC[C@@H]2CCCN2C)ncc1-c1ccc(F)cc1C(F)(F)F [Example 92b, (S)-5-(4-fluoro-2-(trifluoromethyl)phenyl)-4-methyl-N-((1-methylpyrrolidin-2-yl)methyl)pyrimidin-2-amine]",0.073 µM
14,"Cc1nc(NC[C@H]2CCCN2C)ncc1-c1ccc(OC(F)(F)F)cc1F [Example 93a, (R)-5-(2-fluoro-4-(trifluoromethoxy)phenyl)-4-methyl-N-((1-methylpyrrolidin-2-yl)methyl)pyrimidin-2-amine]",0.05 µM
15,"Cc1nc(NC[C@@H]2CCCN2C)ncc1-c1ccc(OC(F)(F)F)cc1F [Example 93b, (S)-5-(2-fluoro-4-(trifluoromethoxy)phenyl)-4-methyl-N-((1-methylpyrrolidin-2-yl)methyl)pyrimidin-2-amine]",0.011 µM
16,"Cc1nc(NC[C@H]2CCCN2)ncc1-c1ccc(F)cc1F [Example 94a, (R)-5-(2,4-difluorophenyl)-4-methyl-N-(pyrrolidin-2-ylmethyl)pyrimidin-2-amine]",0.005 µM
17,"Cc1nc(NC[C@H]2CCCN2CC(F)(F)F)ncc1-c1ccc(F)cc1F [Example 95a, (R)-5-(2,4-difluorophenyl)-4-methyl-N-((1-(2,2,2-trifluoroethyl)pyrrolidin-2-yl)methyl)pyrimidin-2-amine]",0.048 µM
18,"Cc1nc(NC[C@@H]2CCCN2CC(F)(F)F)ncc1-c1ccc(F)cc1F [Example 95b, (S)-5-(2,4-difluorophenyl)-4-methyl-N-((1-(2,2,2-trifluoroethyl)pyrrolidin-2-yl)methyl)pyrimidin-2-amine]",0.07 µM

row,Compound,IC50
1,"CCN1CCCC1CNc1ncc(-c2ccc(C(F)(F)F)cc2F)c(C)n1 (centres unmarked) [Example 98, N-((1-ethylpyrrolidin-2-yl)methyl)-5-(2-fluoro-4-(trifluoromethyl)phenyl)-4-methyl-pyrimidin-2-amine]",0.067 µM
2,"Cc1nc(NCC2CCN(C)C2)ncc1-c1ccc(C(F)(F)F)cc1F (centres unmarked) [Example 99, 5-(2-fluoro-4-(trifluoromethyl)phenyl)-4-methyl-N-((1-methylpyrrolidin-3-yl)methyl)pyrimidin-2-amine]",0.083 µM
3,"Cc1nc(N[C@H]2CCN(C(C)C)C2)ncc1-c1ccc(C(F)(F)F)cc1F [Example 100, (S)-5-(2-fluoro-4-(trifluoromethyl)phenyl)-N-(1-isopropylpyrrolidin-3-yl)-4-methyl-pyrimidin-2-amine]",0.11 µM
4,"Cc1nc(NCC2CCN(C)CC2)ncc1-c1ccc(C(F)(F)F)cc1F [Example 101, 5-(2-fluoro-4-(trifluoromethyl)phenyl)-4-methyl-N-((1-methyl-4-piperidinyl)methyl)pyrimidin-2-amine]",0.109 µM
5,"Cc1nc(NC[C@H]2CCCN2)ncc1-c1ccc(C(F)(F)F)cc1F [Example 102, (R)-5-(2-fluoro-4-(trifluoromethyl)phenyl)-4-methyl-N-(pyrrolidin-2-ylmethyl)pyrimidin-2-amine]",0.005 µM
6,"Cc1nc(NC[C@@H]2CCCN2)ncc1-c1ccc(C(F)(F)F)cc1F [Example 103, (S)-5-(2-fluoro-4-(trifluoromethyl)phenyl)-4-methyl-N-(pyrrolidin-2-ylmethyl)pyrimidin-2-amine]",0.04 µM
7,"Cc1nc(NCC2CCCCN2)ncc1-c1ccc(C(F)(F)F)cc1F (centres unmarked) [Example 104, 5-(2-fluoro-4-(trifluoromethyl)phenyl)-4-methyl-N-(2-piperidinylmethyl) pyrimidin-2-amine]",0.027 µM
8,"CCN1CCC[C@H]1CNc1ncc(-c2ccc(C(F)(F)F)cc2F)c(C)n1 [Example 105, (S)—N-((1-ethylpyrrolidin-2-yl)methyl)-5-(2-fluoro-4-(trifluoromethyl)phenyl)-4-methyl-pyrimidin-2-amine]",0.05 µM
9,"Cc1nc(NCCC2CCCN2C)ncc1-c1ccc(C(F)(F)F)cc1F (centres unmarked) [Example 106, 5-(2-fluoro-4-(trifluoromethyl)phenyl)-4-methyl-N-(2-(1-methylpyrrolidin-2-yl)ethyl)pyrimidin-2-amine]",0.054 µM
10,"Cc1nc(NCC[C@H]2CCCN2C)ncc1-c1ccc(C(F)(F)F)cc1F [Example 106a, (R)-5-(2-fluoro-4-(trifluoromethyl)phenyl)-4-methyl-N-(2-(1-methylpyrrolidin-2-yl)ethyl)pyrimidin-2-amine]",0.105 µM
11,"Cc1nc(NCC[C@@H]2CCCN2C)ncc1-c1ccc(C(F)(F)F)cc1F [Example 106b, (S)-5-(2-fluoro-4-(trifluoromethyl)phenyl)-4-methyl-N-(2-(1-methylpyrrolidin-2-yl)ethyl)pyrimidin-2-amine]",0.138 µM
12,"Cc1nc(NCC2CCCN(C)C2)ncc1-c1ccc(C(F)(F)F)cc1F (centres unmarked) [Example 107, 5-(2-fluoro-4-(trifluoromethyl)phenyl)-4-methyl-N-((1-methyl-3-piperidinyl)methyl)pyrimidin-2-amine]",0.154 µM
13,"Cc1nc(NCC2CN(C)CCO2)ncc1-c1ccc(C(F)(F)F)cc1F (centres unmarked) [Example 108, 5-(2-fluoro-4-(trifluoromethyl)phenyl)-4-methyl-N-((4-methylmorpholin-2-yl)methyl)pyrimidin-2-amine]",0.043 µM
14,"Cc1nc(N[C@H]2CCCC[C@@H]2N(C)C)ncc1-c1ccc(C(F)(F)F)cc1F [Example 109, (1S,2S)—N^1-(5-(2-fluoro-4-(trifluoromethyl)phenyl)-4-methyl-pyrimidin-2-yl)-N^2,N^2-dimethyl-cyclohexane-1,2-diamine]",0.096 µM
15,"Cc1nc(N[C@@H]2CCNC2)ncc1-c1ccc(C(F)(F)F)cc1F [Example 110, (R)-5-(2-fluoro-4-(trifluoromethyl)phenyl)-4-methyl-N-(pyrrolidin-3-yl)pyrimidin-2-amine]",0.054 µM
16,"Cc1nc(N[C@H]2CC[C@H](N)C2)ncc1-c1ccc(C(F)(F)F)cc1F [Example 111, (1S,3S)—N^3-(5-(2-fluoro-4-(trifluoromethyl)phenyl)-4-methyl-pyrimidin-2-yl)cyclopentane-1,3-diamine]",0.09 µM
17,"Cc1nc(NC[C@@H]2CCCNC2)ncc1-c1ccc(C(F)(F)F)cc1F [Example 113, (R)-5-(2-fluoro-4-(trifluoromethyl)phenyl)-4-methyl-N-((3-piperidinyl)methyl)pyrimidin-2-amine]",0.045 µM
18,"Cc1nc(N[C@@H]2CNC[C@H]2O)ncc1-c1ccc(C(F)(F)F)cc1F [Example 115, (3R,4R)-4-((5-(2-fluoro-4-(trifluoromethyl)phenyl)-4-methyl-pyrimidin-2-yl)amino)pyrrolidin-3-ol]",0.121 µM

# Same assay, conditions: IC50 (μM), HEK cell line stably expressing the receptor; 10 min pre-incubation, nicotine EC80; 10-point curve, duplicate wells
row,Compound,IC50
1,"Cc1nc(NC[C@H]2CCCCN2)ncc1-c1ccc(C(F)(F)F)cc1F [Example 104a, (R)-5-(2-fluoro-4-(trifluoromethyl)phenyl)-4-methyl-N-(2-piperidinylmethyl)pyrimidin-2-amine]",0.104 µM
2,"Cc1nc(NC[C@@H]2CCCCN2)ncc1-c1ccc(C(F)(F)F)cc1F [Example 104b, (S)-5-(2-fluoro-4-(trifluoromethyl)phenyl)-4-methyl-N-(2-piperidinylmethyl)pyrimidin-2-amine]",0.045 µM
